We go through four compounds from patent US20060193902A1, “Pharmaceutical compositions containing active agents having a lactone group and transition metal ions” (Celator Pharmaceuticals, Inc., priority 2003, published 2006).

Data set [1] has as its system DNA. The note with it: copper(II) complex, long-wave UV light; CuSO4 and drug 10 μM; cited from earlier work.
The nature of data set [2]: Lactone/carboxy ratio of irinotecan in buffers with or without copper sulphate, by HPLC (Example 2). The data set is classed as physicochemical. As to conditions: presence of CuSO4, pH 7.5.
Data set [3] is described as follows: Thin layer chromatography for ring closed lactone and ring open carboxylate forms of irinotecan (Example 5). The data set is classed as physicochemical. The note with it: HEPES buffered saline, acidic conditions, 30 minutes; lactone form. The protocol:
Three sets of liposomal formulations of irinotecan were prepared as previously described. […] Any unencapsulated irinotecan was removed by column chromatography. […] The third formulation (B) contained irinotecan and floxuridine in the final composition. In this formulation the liposomes were prepared in the presence of floxuridine and then unencapsulated drug was removed by chromatography. […] In all cases the external pH was adjusted to match the internal liposomal pH prior to irinotecan loading.
Liposomal formulations of irinotecan were first analyzed for ring closed lactone and ring open carboxylate forms of the drug by thin layer chromatography. A set of standards were first prepared and used as a reference for the liposomal formulations. […] The TLC plates were dried overnight at room temperature and then run in a second solvent system composed of butanol:acetic acid:water:acetone (4:2:1:1). […] As the pH of the solution increased, the presence of the carboxylate band appears.
The plates were run in the same solvent systems and visualized by UV light.

The conditions of data set [4]: 3 hours of incubation in human blood; cited from earlier work.

With `CC[C@@]1(O)C(=O)OCc2c1cc1n(c2=O)Cc2cc3cc(O)ccc3nc2-1` [10-hydroxycamptothecin], the DNA cleavage in data set [1] is recorded as 1.7%.
With `CC[C@H]1C(=O)OCc2c1cc1n(c2=O)Cc2cc3ccccc3nc2-1` [20-deoxycamptothecin], the DNA cleavage in data set [1] is 28%.
As to `CCc1c2c(nc3ccc(OC(=O)N4CCC(N5CCCCC5)CC4)cc13)-c1cc3c(c(=O)n1C2)COC(=O)[C@]3(O)CC` [Irinotecan, irinotecan], the “irinotecan remaining in the lactone form” value in data set [2] (4 hours) was 56.39%. In addition, in data set [2] (24 hours), the “irinotecan present in the ring-closed, lactone form” value amounted to 58.66%. The “irinotecan species seen by TLC in aqueous standards” value in data set [3] is listed as “dominant species”.
Turning to `CC[C@@]1(O)C(=O)OCc2c1cc1n(c2=O)Cc2cc3ccccc3nc2-1` [camptothecin], the DNA cleavage in data set [1] is reported as 51%. For the same compound, the lactone ring present in data set [4] is given as 5%.
